System: Escherichia coli ATCC 25922
Experiment: Minimum inhibitory concentration (MIC), CLSI broth micro-dilution, E. coli
Format: cell-based
Conditions: Escherichia coli
Outline: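 Antibacterial potency is measured as MIC by the CLSI broth dilution method. Bacteria at OD600 0.0005 in Tween-80-supplemented cation-adjusted Mueller Hinton broth face ten twofold compound dilutions for 22 h at 35° C.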

[1] = ATCC25922, Table 7, cation adjusted Mueller Hinton Broth + 0.002% Tween-80, 35° C., 22 hours
[2] = ATCC25922, 22 h, Table 7, cation adjusted Mueller Hinton Broth + 0.002% Tween-80, 35° C.
[3] = ATCC25922, Table 6, cation adjusted Mueller Hinton Broth + 0.002% Tween-80, 35° C., 22 hours

Row | MIC [2] [µM] | Compound | MIC [3] [µM] | further results
1 | – | Cc1nc(-c2ccc(C(C)(C)C)cc2)nc(C)c1C(=O)N[C@@H](CNS(N)(=O)=O)C(=O)N(C)[C@@H]1C(=O)N[C@@H](C)C(=O)N[C@H](C(=O)NCC#N)Cc2ccc(OC[C@H](O)CN)c(c2)-c2cc1cc(OC[C@H](O)CN)c2O (racemic) [Compound 582, rac-(8S,11S,14S)-N-(cyanomethyl)-18-hydroxy-11-methyl-14-[methyl-[rac-(2S)-2-[[2-(4-tert-butylphenyl)-4,6-dimethyl-pyrimidine-5-carbonyl]amino]-3-(sulfamoylamino)propanoyl]amino]-10,13-dioxo-3,17-bis[rac-(2R)-3-amino-2-hydroxy-propoxy]-9,12-diazatricyclo[13.3.1.12,6]icosa-1(18),2(20),3,5,15(19),16-hexaene-8-carboxamide] | – | MIC [1]: 0.75 µM
2 | – | Cc1nc(-c2ccc(C(C)(C)C)cc2)nc(C)c1C(=O)N[C@@H](CNS(N)(=O)=O)C(=O)N(C)[C@@H]1C(=O)N[C@@H](C)C(=O)N[C@H](C(=O)NCC#N)Cc2cc(c(O)cc2OCCN)-c2cc1ccc2OCCN (racemic) [Compound 628, rac-(8S,11S,14S)-5,18-bis(2-aminoethoxy)-N-(cyanomethyl)-3-hydroxy-11-methyl-14-[methyl-[rac-(2S)-2-[[2-(4-tert-butylphenyl)-4,6-dimethyl-pyrimidine-5-carbonyl]amino]-3-(sulfamoylamino)propanoyl]amino]-10,13-dioxo-9,12-diazatricyclo[13.3.1.12,6]icosa-1(18),2(20),3,5,15(19),16-hexaene-8-carboxamide] | – | MIC [1]: 0.44 µM
3 | – | Cc1nc(-c2ccc(C(C)(C)C)cc2)nc(C)c1C(=O)N[C@@H](CCN)C(=O)N(C)[C@@H]1C(=O)N[C@@H](C)C(=O)N[C@H](C(=O)NCC#N)Cc2ccc3c(c2)-c2cc1ccc2OCC(O)(CN)CO3 (some centres unmarked) [Compound 440] | – | MIC (ATCC25922, 22 h, Table 6, cation adjusted Mueller Hinton Broth + 0.002% Tween-80, 35° C.): 1 µM
4 | 0.25 | Cc1nc(-c2ccc(C(C)(C)C)cc2)nc(C)c1C(=O)N[C@@H](CCN)C(=O)N(C)[C@@H]1C(=O)N[C@@H](C)C(=O)N[C@H](C(=O)NCC#N)Cc2ccc(OCCN)c(c2)-c2cc1ccc2CN (racemic) [Compound 634, rac-(8S,11S,14S)-3-(2-aminoethoxy)-18-(aminomethyl)-N-(cyanomethyl)-11-methyl-14-[methyl-[rac-(2S)-4-amino-2-[[2-(4-tert-butylphenyl)-4,6-dimethyl-pyrimidine-5-carbonyl]amino]butanoyl]amino]-10,13-dioxo-9,12-diazatricyclo[13.3.1.12,6]icosa-1(18),2,4,6(20),15(19),16-hexaene-8-carboxamide] | – | –
5 | 0.13 | Cc1nc(-c2ccc(OC3CCCCC3)cc2)cc(N)c1C(=O)N[C@@H](CCN)C(=O)N(C)[C@@H]1C(=O)N[C@@H](C)C(=O)N[C@H](C(=O)NCC#N)Cc2ccc(OCCCN)c(c2)-c2cc1ccc2OCCCN (racemic) [Compound 565, rac-(8S,11S,14S)-3,18-bis(3-aminopropoxy)-N-(cyanomethyl)-11-methyl-14-[methyl-[rac-(2S)-4-amino-2-[[4-amino-6-[4-(cyclohexoxy)phenyl]-2-methyl-pyridine-3-carbonyl]amino]butanoyl]amino]-10,13-dioxo-9,12-diazatricyclo[13.3.1.12,6]icosa-1(18),2(20),3,5,15(19),16-hexaene-8-carboxamide] | – | –
6 | 0.25 | Cc1nc(-c2ccc(C(C)(C)C)cc2)nc(C)c1C(=O)N[C@@H](CCN)C(=O)N(C)[C@@H]1C(=O)N[C@@H](C)C(=O)N[C@H](C(=O)NCC#N)Cc2ccc(OCCN)c(c2)-c2cc1cc(NC(N)=O)c2O (racemic) [Compound 621, rac-(8S,11S,14S)-3-(2-aminoethoxy)-N-(cyanomethyl)-18-hydroxy-11-methyl-14-[methyl-[rac-(2S)-4-amino-2-[[2-(4-tert-butylphenyl)-4,6-dimethyl-pyrimidine-5-carbonyl]amino]butanoyl]amino]-10,13-dioxo-17-ureido-9,12-diazatricyclo[13.3.1.12,6]icosa-1(18),2(20),3,5,15(19),16-hexaene-8-carboxamide] | – | –
7 | – | C=Cc1ccc(C#Cc2nc(C)c(C(=O)N[C@@H](CCN)C(=O)N(C)[C@@H]3C(=O)N[C@@H](C)C(=O)N[C@H](C(=O)NCC#N)Cc4ccc(OCCN)c(c4)-c4cc3ccc4OCCN)c(C)n2)cc1 (racemic) [Compound 310, rac-(8S,11S,14S)-3,18-bis(2-aminoethoxy)-N-(cyanomethyl)-11-methyl-14-[methyl-[rac-(2S)-4-amino-2-[[4,6-dimethyl-2-[2-(4-vinylphenyl)ethynyl]pyrimidine-5-carbonyl]amino]butanoyl]amino]-10,13-dioxo-9,12-diazatricyclo[13.3.1.12,6]icosa-1(18),2(20),3,5,15(19),16-hexaene-8-carboxamide] | 0.53 | –
8 | – | Cc1c(Oc2ccc(C(C)(C)C)cc2)ccc(C(=O)N[C@@H](CCN)C(=O)N(C)[C@@H]2C(=O)N[C@@H](C)C(=O)N[C@H](C(=O)NCC#N)Cc3ccc(OCCN)c(c3)-c3cc2ccc3OCCN)c1C (racemic) [Compound 374, rac-(8S,11S,14S)-3,18-bis(2-aminoethoxy)-N-(cyanomethyl)-11-methyl-14-[methyl-[rac-(2S)-4-amino-2-[[4-(4-tert-butylphenoxy)-2,3-dimethyl-benzoyl]amino]butanoyl]amino]-10,13-dioxo-9,12-diazatricyclo[13.3.1.12,6]icosa-1(18),2(20),3,5,15(19),16-hexaene-8-carboxamide] | 0.25 | –
9 | – | CNC(=N)NCCOc1ccc2cc1-c1cc(ccc1OCCNC(=N)NC)[C@H](N(C)C(=O)[C@H](CCN)NC(=O)c1c(C)nc(-c3ccc(C(C)(C)C)cc3)nc1C)C(=O)N[C@@H](C)C(=O)N[C@H](C(=O)NCC#N)C2 (racemic) [Compound 441, rac-(8S,11S,14S)-N-(cyanomethyl)-11-methyl-3,18-bis[2-[(N-methylcarbamimidoyl)amino]ethoxy]-14-[methyl-[rac-(2S)-4-amino-2-[[2-(4-tert-butylphenyl)-4,6-dimethyl-pyrimidine-5-carbonyl]amino]butanoyl]amino]-10,13-dioxo-9,12-diazatricyclo[13.3.1.12,6]icosa-1(18),2(20),3,5,15(19),16-hexaene-8-carboxamide] | 0.38 | –
10 | – | C[C@@H]1NC(=O)[C@@H](N(C)C(=O)[C@H](CCN)NC(=O)c2cc([N+](=O)[O-])c(-c3ccc(C(C)(C)C)cc3)nc2N)c2ccc(OCCN)c(c2)-c2cc(ccc2OCCN)C[C@@H](C(=O)NCC#N)NC1=O (racemic) [Compound 415, rac-(8S,11S,14S)-3,18-bis(2-aminoethoxy)-N-(cyanomethyl)-11-methyl-14-[methyl-[rac-(2S)-4-amino-2-[[2-amino-6-(4-tert-butylphenyl)-5-nitro-pyridine-3-carbonyl]amino]butanoyl]amino]-10,13-dioxo-9,12-diazatricyclo[13.3.1.12,6]icosa-1(18),2(20),3,5,15(19),16-hexaene-8-carboxamide] | 1.5 | –
11 | – | Cc1nc(-c2ccc(C(C)(C)C)cc2)nc(C)c1C(=O)N[C@@H](CCN)C(=O)N(C)[C@@H]1C(=O)N[C@@H](C)C(=O)N[C@H](C(=O)NCC#N)Cc2cc(OCCN)c(O)c(c2)-c2cc1ccc2OC[C@H](O)CN (racemic) [Compound 594, rac-(8S,11S,14S)-4-(2-aminoethoxy)-N-(cyanomethyl)-3-hydroxy-11-methyl-14-[methyl-[rac-(2S)-4-amino-2-[[2-(4-tert-butylphenyl)-4,6-dimethyl-pyrimidine-5-carbonyl]amino]butanoyl]amino]-10,13-dioxo-18-[rac-(2R)-3-amino-2-hydroxy-propoxy]-9,12-diazatricyclo[13.3.1.12,6]icosa-1(18),2(20),3,5,15(19),16-hexaene-8-carboxamide] | – | MIC [1]: 0.13 µM
12 | 0.21 | Cc1nc(-c2ccc(C(C)(C)C)cc2)nc(C)c1C(=O)N[C@@H](CNS(N)(=O)=O)C(=O)N(C)[C@@H]1C(=O)N[C@@H](C)C(=O)N[C@H](C(=O)NCC#N)Cc2ccc(OC[C@H](O)CN)c(c2)-c2cc1ccc2OC[C@H](O)CN (racemic) [Compound 577, rac-(8S,11S,14S)-N-(cyanomethyl)-11-methyl-14-[methyl-[rac-(2S)-2-[[2-(4-tert-butylphenyl)-4,6-dimethyl-pyrimidine-5-carbonyl]amino]-3-(sulfamoylamino)propanoyl]amino]-10,13-dioxo-3,18-bis[rac-(2R)-3-amino-2-hydroxy-propoxy]-9,12-diazatricyclo[13.3.1.12,6]icosa-1(18),2(20),3,5,15(19),16-hexaene-8-carboxamide] | – | –
13 | 0.33 | Cc1nc(-c2ccc(C(C)(C)C)cc2)nc(C)c1C(=O)N[C@@H](CCN)C(=O)N(C)[C@@H]1C(=O)N[C@@H](C)C(=O)N[C@H](C(=O)NCC#N)Cc2ccc(O)c(c2)-c2cc1ccc2OCCNC(=N)N (racemic) [Compound 595, rac-(8S,11S,14S)-N-(cyanomethyl)-18-(2-guanidinoethoxy)-3-hydroxy-11-methyl-14-[methyl-[rac-(2S)-4-amino-2-[[2-(4-tert-butylphenyl)-4,6-dimethyl-pyrimidine-5-carbonyl]amino]butanoyl]amino]-10,13-dioxo-9,12-diazatricyclo[13.3.1.12,6]icosa-1(18),2(20),3,5,15(19),16-hexaene-8-carboxamide] | – | –
14 | – | CCCCc1ccc(-c2nc(C)c(C(=O)N[C@@H](CCN)C(=O)N(C)[C@@H]3C(=O)N[C@@H](C)C(=O)N[C@H](C(=O)NCC#N)Cc4ccc(OCCN)c(c4)-c4cc3ccc4OCCN)c(C)n2)nc1 (racemic) [Compound 293, rac-(8S,11S,14S)-3,18-bis(2-aminoethoxy)-N-(cyanomethyl)-11-methyl-14-[methyl-[rac-(2S)-4-amino-2-[[2-(5-butyl-2-pyridyl)-4,6-dimethyl-pyrimidine-5-carbonyl]amino]butanoyl]amino]-10,13-dioxo-9,12-diazatricyclo[13.3.1.12,6]icosa-1(18),2(20),3,5,15(19),16-hexaene-8-carboxamide] | 1.5 | –

Reference: US20260274892A1, “MACROCYCLIC BROAD SPECTRUM ANTIBIOTICS” (RQx Pharmaceuticals, Inc., priority 2017, published 2026)
